Experiment [1] concerns the target T1, M3 mAChR (Homo sapiens, UniProt P20309).
T1 construct: expressed in transfected cells; host or cells: CHO FlpIn
As to the kind of experiment: whole-cell [3H]NMS radioligand competition binding, CHO FlpIn cells. The settings on record: first set of experiments, read-out: pKI (radioligand binding competition with [3H]NMS) (converted). A general note: Displacement assays read how much labelled ligand stays bound in the presence of the test substance.

Experiment [2] deals with T2, M4 L190F mAChR (Homo sapiens, UniProt P08173, L190F).
T2 construct: expressed in transfected cells; host or cells: CHO FlpIn
T2 sequence (P08173 1-479 L190F): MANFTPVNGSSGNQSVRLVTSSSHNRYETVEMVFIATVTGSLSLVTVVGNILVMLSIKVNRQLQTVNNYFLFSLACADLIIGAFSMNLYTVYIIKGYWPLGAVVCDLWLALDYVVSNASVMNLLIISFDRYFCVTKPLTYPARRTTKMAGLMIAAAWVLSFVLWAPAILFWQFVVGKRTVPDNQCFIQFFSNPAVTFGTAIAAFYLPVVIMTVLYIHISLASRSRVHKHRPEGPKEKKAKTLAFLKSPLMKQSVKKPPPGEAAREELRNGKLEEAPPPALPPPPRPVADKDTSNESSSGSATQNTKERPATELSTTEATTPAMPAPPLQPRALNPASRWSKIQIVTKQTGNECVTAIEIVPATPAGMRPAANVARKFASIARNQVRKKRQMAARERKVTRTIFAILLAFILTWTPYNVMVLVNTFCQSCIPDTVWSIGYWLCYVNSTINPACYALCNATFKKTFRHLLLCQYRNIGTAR
As to the kind of experiment: pERK1/pERK2 signaling assay (AlphaScreen SureFire), CHO FlpIn cells. The note with it: M4(L190F); second set of experiments. The format is cell-based.

The target in experiment [3] is T3, M4 mAChR (Homo sapiens, UniProt P08173).
T3 construct: expressed in transfected cells; host or cells: CHO FlpIn
T3 sequence (P08173 1-479): T2 sequence (P08173 1-479 L190F) with F190L
Described as above. The format is cell-based.

The next experiment addresses T4, M5 mAChR (Homo sapiens, UniProt P08912).
T4 construct: expressed in transfected cells; host or cells: CHO FlpIn
T4 sequence (P08912 1-532): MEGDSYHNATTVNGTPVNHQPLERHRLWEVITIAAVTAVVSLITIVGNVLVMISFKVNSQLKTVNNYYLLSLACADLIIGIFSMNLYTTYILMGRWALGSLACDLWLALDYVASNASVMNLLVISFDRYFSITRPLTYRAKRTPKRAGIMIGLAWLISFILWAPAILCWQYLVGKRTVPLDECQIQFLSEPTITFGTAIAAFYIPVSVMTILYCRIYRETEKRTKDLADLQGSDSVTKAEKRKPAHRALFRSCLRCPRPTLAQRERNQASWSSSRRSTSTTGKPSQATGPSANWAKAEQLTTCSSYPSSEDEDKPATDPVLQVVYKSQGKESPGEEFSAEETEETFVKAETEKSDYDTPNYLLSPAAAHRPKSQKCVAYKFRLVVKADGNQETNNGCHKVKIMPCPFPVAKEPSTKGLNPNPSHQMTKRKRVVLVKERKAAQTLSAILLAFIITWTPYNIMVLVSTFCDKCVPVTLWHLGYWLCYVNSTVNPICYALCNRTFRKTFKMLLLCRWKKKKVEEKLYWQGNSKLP
The description is as above. The format is cell-based. The note with it: first set of experiments.

The target in the next experiment is T5, M2 mAChR (Homo sapiens, UniProt P08172).
T5 sequence (P08172 1-466): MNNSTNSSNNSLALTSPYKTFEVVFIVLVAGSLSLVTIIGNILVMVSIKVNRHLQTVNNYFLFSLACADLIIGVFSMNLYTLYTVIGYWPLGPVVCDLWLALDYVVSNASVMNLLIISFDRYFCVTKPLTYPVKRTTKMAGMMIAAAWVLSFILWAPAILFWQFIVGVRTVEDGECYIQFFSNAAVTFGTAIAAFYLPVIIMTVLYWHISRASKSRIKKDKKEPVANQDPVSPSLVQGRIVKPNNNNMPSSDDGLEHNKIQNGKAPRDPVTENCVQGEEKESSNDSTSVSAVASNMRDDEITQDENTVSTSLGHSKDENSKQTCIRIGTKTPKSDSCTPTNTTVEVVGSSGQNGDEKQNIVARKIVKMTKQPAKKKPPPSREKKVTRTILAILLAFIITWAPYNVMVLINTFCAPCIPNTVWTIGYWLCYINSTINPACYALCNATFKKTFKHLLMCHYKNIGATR
As to the kind of experiment: whole-cell [3H]NMS radioligand competition binding, CHO FlpIn cells.

Experiment [4] addresses T2, M4 L190F mAChR. As to the kind of experiment: BRET TRUPATH GoA activation (G-protein dissociation) assay. It is filed as cell-based. The note with it: T=[…]. The protocol:
(§1) Cells were seeded at 20,000 cells per well into 96-well flat-bottom white culture plates and grown for 4 h. Plasmid DNA (20 ng per well of Gα, Gβ and Gγ at a 1:1:1 ratio) and linear polyethylenimine were added to the cells in a 1:6 ratio. To allow for protein expression, cells were then incubated (37 °C, 5% CO2) for 48 h before the measurement of agonist activity. […] The initial 4 min of measurement was considered baseline counts before ligand or vehicle addition, with BRET readings every 2 min for a further 8 min following drug or vehicle addition.
(§2) Concentration–response curves were fitted to a three-parameter logistic equation to derive ligand potency (pEC50) estimates.
(§3) Data was analyzed using the operational model of agonism to quantify the efficacy (Logτ) of each agonist in each cell line, and subsequently corrected for receptor expression level differences between cell lines (Logτc), using the M2 WT as reference. […] Source data
(In general: In BRET a luciferase serves as donor, and the signal depends on an acceptor being close.)

The next experiment deals with T6, M2 WT mAChR (Homo sapiens, UniProt P08172).
T6 construct: expressed in transfected cells; host or cells: CHO FlpIn
T6 sequence (P08172 1-466): T5 sequence (P08172 1-466)
Described as above. The format is cell-based. The note with it: M2 WT; T=[…]. The protocol:
as §1, §2, §3

In experiment [5] the target is T3, M4 mAChR. As to the kind of experiment: whole-cell [3H]NMS radioligand competition binding, CHO FlpIn cells. The note with it: read-out: Affinities M2 M4: binding normalised to Buffer only-TB = 100.
For experiment [6], the target named is T1, M3 mAChR. Kind of experiment: pERK1/pERK2 signaling assay (AlphaScreen SureFire), CHO FlpIn cells. The format is cell-based. On the technique in general: Alpha assays give light when donor and acceptor beads are brought close together.
In a further experiment the target is T7, M4 WT mAChR (Homo sapiens, UniProt P08173).
T7 construct: expressed in transfected cells; host or cells: CHO FlpIn
T7 sequence (P08173 1-479): T2 sequence (P08173 1-479 L190F) with F190L
Kind of experiment: BRET TRUPATH GoA activation (G-protein dissociation) assay. The format is cell-based. The note with it: T=[…].

Numbering of substitutions follows the chain as printed.

T1 sequence (P20309 whole entry): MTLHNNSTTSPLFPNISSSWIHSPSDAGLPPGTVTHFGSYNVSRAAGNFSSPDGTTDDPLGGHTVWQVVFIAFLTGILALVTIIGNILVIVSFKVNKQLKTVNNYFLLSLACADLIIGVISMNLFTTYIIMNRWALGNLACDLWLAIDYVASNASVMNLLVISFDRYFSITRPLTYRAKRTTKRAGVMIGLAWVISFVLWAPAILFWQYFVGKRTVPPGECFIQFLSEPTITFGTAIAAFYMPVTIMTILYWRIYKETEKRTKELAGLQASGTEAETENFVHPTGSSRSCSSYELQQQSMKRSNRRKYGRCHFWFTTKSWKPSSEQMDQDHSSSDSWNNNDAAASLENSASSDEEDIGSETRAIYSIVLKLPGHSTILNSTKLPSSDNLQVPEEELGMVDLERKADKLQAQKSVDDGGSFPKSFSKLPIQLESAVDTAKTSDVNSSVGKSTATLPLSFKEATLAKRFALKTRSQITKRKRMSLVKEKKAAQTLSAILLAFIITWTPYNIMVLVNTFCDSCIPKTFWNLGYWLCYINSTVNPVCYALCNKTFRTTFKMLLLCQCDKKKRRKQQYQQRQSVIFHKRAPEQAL

As for `CCCCCCOc1nsnc1C1=CCCN(C)C1` [Xanomeline, xanomeline], the Ki on M3 mAChR [1] is 100 nM. Also, the “Emax pERK1/2” value stood at 90 ± 8 % FBS stimulation at M4 L190F mAChR [2]; 92 ± 4 % FBS stimulation on M4 mAChR [3] (first set of experiments (top 5 rows)); 101 ± 3 % FBS stimulation at M4 mAChR [3] (second set of experiments (bottom 4 rows)); 80 ± 8 % FBS stimulation on M5 mAChR; 62 ± 6 % FBS stimulation at M3 mAChR [6]. The remaining binding at 0.1 µM is 83.3% on M2 mAChR (read-out: Affinities M2 M4: binding normalised to Buffer only-TB = 100, M2, Log[Ligand] (M) -7, individual experiments) and 88% on M4 mAChR [5] (M4, Log[Ligand] (M) -7, individual experiments). Also, at M2 mAChR (read-out: Affinities M2 M4: binding normalised to Buffer only-TB = 100, M2, Log[Ligand] (M) -8, individual experiments), the remaining binding at 0.01 µM was 90.2%. Further, the remaining binding at 0.0001 µM at M2 mAChR (read-out: Affinities M2 M4: binding normalised to Buffer only-TB = 100, M2, Log[Ligand] (M) -10, individual experiments) turned out to be 101%. Moreover, the “Log(Tau) corrected for receptor expression (Logτc), GoA activation” value is recorded as -0.36 at M4 L190F mAChR [4], -0.65 on M2 WT mAChR and 0.38 at M4 WT mAChR. The activation at 1000 µM at M4 L190F mAChR [4] ([…], Log[Ligand] (M) -3, individual experiments, read-out: GoA activation response) stood at 3.92%. The activation at 10 µM at M4 L190F mAChR [4] ([…], Log[Ligand] (M) -5, individual experiments, read-out: GoA activation response) is 49%. Further, the remaining binding at 10 µM on M4 mAChR [5] (M4, Log[Ligand] (M) -5, individual experiments) was found to be 1.95%. Further, the remaining binding at 1 µM on M4 mAChR [5] (M4, Log[Ligand] (M) -6, individual experiments) came out at 18.6%. Moreover, the remaining binding at 0.001 µM on M4 mAChR [5] (M4, Log[Ligand] (M) -9, individual experiments) was determined as 105%. Further, the EC50 at M3 mAChR [6] (M3, first set of experiments, read-out: pEC50 pERK1/2 (converted)) is 117 nM.

Source of the values: article PMC10299909, “Structural basis of efficacy-driven ligand selectivity at GPCRs” (Nature Chemical Biology, 2023).
